For data set [1], the system named is H5N1 strain A/Mallard/Bavaria/1/2006. In words: microbe, parasite or virus in culture. It counts as cell-based, influenza A virus. The note with it: for EC50: read-out: EC50 (concentration required to reduce the virus titer to 50%).
For data set [2] the following is noted: cited from earlier work.
For data set [3] the following is noted: mouse, in vivo.
A short description of the next data set: in vivo. The following applies: mouse, po.
Data set [4] relates to A/Regensburg/D6/2009 H1N1pdm09 strain.
Data set [5] concerns influenza virus strain (H5N1; MB1). The following applies: mouse, in vivo.
Data set [6] deals with influenza virus strain A/FPV/Bratislava/79 (H7N7). The following applies: mouse.
The test system of data set [7] is highly pathogenic influenza virus. Set-up: species or system C57BL/6 mice. The note with it: mouse, in vivo.
Data set [8] relates to caspase activation (PARP cleavage).
Data set [9] has as its system vRNP complexes of H5N1 A/Thailand/KAN-1/2004.
Data set [10] has as its system A/FPV/Bratislava/79 (H7N7) viral proteins M1, NP, NS1, PB1.
The test system of data set [11] is H5N1 influenza virus A/Mallard/Bavaria/1/2006.

Where “and” joins values, the source holds several entries; their conditions need not be identical. Equal entries are not always repeated. Entries after “also recorded” stand apart in the source; their conditions may differ. Where two headings read alike, the source gives them in different places.

As a reminder, the bioavailability is the share of a dose that reaches the circulation, judged against a reference dose that is usually intravenous. What is called half-life is the time in which the quantity being followed falls by half. Usually Cmax stands for the highest concentration seen after dosing.

`CC(=O)Oc1ccccc1C(=O)O` [ASA, Acetylsalicylic acid]: in data set [1], the “Antiviral effect on virus titers over time” value (“Antiviral effect … over time” below) is “less potent compared to BAY 81-8781; also recorded: An antiviral effect was also found with ASA (gray triangles) and SA (open triangle) 24 h and 32 h post-infection which, however, was leveled-out at the 48 h time-point”. In addition, the EC50 in data set [1] (Influenza A virus, H5N1, A549, in Anas platyrhynchos) came out at 170 ± 50 µM. The Stability in plasma entry in [2] was “not stable in plasma”. For the same compound, the “AUC and Cmax, plasma compared to lung homogenate” value in data set [3] was “about four-fold higher in plasma”. In data set [3] (iv), the AUC was 0.0781 mg⋅h/L, the Plasma clearance entry is given as “high”, the Terminal half-lives entry is recorded as “short” and the “Volume of distribution at steady state” value is recorded as “moderate”. Also, in [3] (po, 15 mg/kg), the AUC is given as 0.0688 mg⋅h/L and the t1/2 turned out to be 4.54 min. The compound also displayed a bioavailability in “in vivo” of around 10%. In the data set “in vivo” (15 mg/kg), this compound had a bioavailability of 10.3%. In addition, the half-life in the data set “in vivo” (15 mg/kg, t1/2) is 8.64 min.

As for “D,L-lysine acetylsalicylate ⋅ glycine [BAY 81-8781]”, in data set [1], the “Antiviral effect … over time” value was “strong and sustained reduction of virus titers at all time-points; also recorded: even stronger reduction of virus titers at all time-points”; the EC50 amounted to 160 ± 60 µM. Also, the “Reduction of virus propagation” value in [4] was “effective to reduce virus propagation”. Moreover, in data set [5], the “Disease progression (symptom score)” value was “rather moderate”; the “Mice protected from death” value is 87.5% and 62.5%; the “Mice protected from death (protected/total)” value is 5/8; the Weight loss result is “only a moderate weight loss”. Moreover, the “EC50 in vivo (concentration of inhaled BAY 81-8781 solution)” value in data set [6] was 1.56% and 1.5%. For the same compound, the “Reduction of lung virus titers, oral route” value in [6] (in vivo) is listed as “no reduction of virus titers was found”. Moreover, in data set [7], the “Day of death (p.i.)” value is 8.8 days p.i. and 8.8 ± 1.3 days p.i; the “Delay of death of non-protected mice compared to solvent animals” value is 2 days; the “Survival (survival/total)” value is 4/8; the “Weight loss and disease symptoms” value is “either showed no or only slight weight loss and marginal disease symptoms”. Further, in data set [8], the “Cleavage of caspase substrate PARP” value is “reduces the cleavage of the major caspase substrate PARP”. In addition, in [9], the “Release of vRNPs from the nucleus” value was “strongly retained and accumulated in the nucleus”. The “TNFα induced activation of TRAIL mRNA” value with TRAIL mRNA expression is “significantly reduced”. In addition, in [10], the “Accumulation of viral proteins” value is reported as “does not impact accumulation of viral proteins”. In [11], the “Antiviral effect, compound present for 30 min or 1 h” value is “no antiviral effects were found”; the “Antiviral effect, compound present for 2 h or 4 h” value is “a dose dependent antiviral effect was found”; the Virus titer reduction is listed as above 80%.

On to salicylate, for which, in data set [1], the “Antiviral effect … over time” value is “No antiviral effect; also recorded: An antiviral effect was also found with ASA (gray triangles) and SA (open triangle) 24 h and 32 h post-infection which, however, was leveled-out at the 48 h time-point”; the EC50 turned out to be 700 ± 40 µM. Also, in data set [3], the “AUC and Cmax, plasma compared to lung homogenate” value is reported as “about four-fold higher in plasma”; the “Cmax, plasma compared to lung” value is “about three-fold higher in plasma than in lung”. In addition, in data set [3] (iv), the “AUC in plasma, SA compared to ASA” value is given as “about 25 fold”; the AUCnorm is 5.28 kg⋅h/L; the “Cmax in plasma, SA compared to ASA” value was around 2.5 fold. Further, in [3] (po), the AUC was determined as 15.3 mg⋅h/L and the Cmax worked out at 12500 ng/mL.

Values taken from publication PMC5673638 (Frontiers in Microbiology, 2017).
